Where a SMILES comes first, the peptide text is derived from it. The star is where a group is joined. Cbz = O=C(OCc1ccccc1)*
How the values were obtained:
ERCC1 protein isoforms = assay: Western blot of ERCC1 protein isoforms after proteasome inhibition; format: cell-based, human; conditions: 2 μM for 24 h
Protocol: Proteins were extracted by lysis in RIPA buffer (50 mM Tris, 150 mM NaCl, 5 mM EDTA, 0.5% sodium deoxycholic acid, 0.5% NP-40, 0.1% SDS) supplemented with a protease inhibitor cocktail (Complete; Roche Molecular). For nucleus and cytoplasm protein, a first extraction and separation was done with a buffer containing 10 mM HEPES, 10 mM KCl, 1 mM DTT, 1 mM PMSF and protease inhibitor cocktail supplemented with 0.3% NP40. The nucleus fraction was next resuspended in a buffer containing 20 mM HEPES and 400 mM NaCl. Protein were then separated by SDS-PAGE and transferred to nitrocellulose membranes by the iBlot® 7-Minute Blotting System (Invitrogen). Blots were incubated with primary and secondary peroxidase-conjugated antibodies and chemiluminescent detection was done using the Dura HRP Substrate (Thermo scientific).
For proteasome inhibition, cells were treated with MG132 (Merck) at 2 μM for 24 h.

[1] = system: cell lines without ERCC1-202 isoform expression (A549 ERCC1-deficient); assay: Cell cycle / DNA content by flow cytometry after cisplatin; format: cell-based, human; conditions: 30 and 300 nM for 48 hours
Protocol: To study effect of cisplatin on cell cycle arrest, cells were treated with 30 nM or 300 nM of cisplatin for 48 h. For high DNA content analysis, cells were blocked in G2/M cell cycle phase with Karyomax colcemid solution (Gibco-Invitrogen) at 0.1 μg/ml for 6 h.
DNA content was determined in ethanol-fixed cells, stained with propidium iodide and analyzed using a Becton Dickinson FACScalibur flow cytometer and the CellQuest Pro software.

Compound | ERCC1 isoform protein expression level after proteasome inhibition (ERCC1 protein isoforms) | cells blocked in G2/M cell cycle phase [1]
CC(C)C[C@@H](C=O)NC(=O)[C@H](CC(C)C)NC(=O)[C@H](CC(C)C)NC(=O)OCc1ccccc1 [MG132] (Cbz-Leu-Leu-Leu-aldehyde) | increase in ERCC1-201, -203 and -204 expression level | 
N.N.[Cl][Pt][Cl] [cisplatin] |  | 60-80%

From patent US9702875B2 (priority 2006, dated 2017)
